EC50 data for 18 molecules are collected here from patent US11617777B2, “Cytotoxic and anti-mitotic compounds, and methods of using the same” (ZYMEWORKS BC INC., priority 2013, dated 2023).

This assay deals with Jurkat cells. The assay is described as follows: Cytotoxicity of compounds, CellTiter-Glo. It is filed as cell-based, Human. The note with it: read-out: EC50. The text has this: Cell lines used: Human T-cell leukemia cell line Jurkat (ATCC: TIB-152); HCC1954 (ATCC: CRL. 2338); Human Pancreatic cells lines: AsPC-1 (ATCC: CRL-1682), BxPC-3 (ATCC: CRL.1687), HPAF-II (ATCC: CRL.1997), MiaPaCa2 (ATCC: CRL.1420), PANC-1 (ATCC: CRL.1469), Capan-1 (ATCC: HTB-79), Capan-2 (ATCC: HTB-80) and the Human gastric carcinoma cell line NCI-N87 (ATCC: CRL. 5822); AML-193 (ATCC: CRL.9589), CCRF-CEM (ATCC: CCL-119), DU145 (ATCC: HTB-81), PC-3 (ATCC: CRL.1435), A-431 (ATCC: CRL.1555), HT-29 (ATCC: HTB-38), A-172 (ATCC: CRL.1620), NCI-H358 (ATCC: CRL.5807), A549 (ATCC: CCL-185), Colo-205 (ATCC: CCL-222), MDA-MB-231 (ATCC: HTB-26), OVCAR-3 (ATCC: HTB-161), OV-90 (ATCC: CRL.11732), OE19 (Sigma: 96071721), RT 112/84 (Sigma: 85061106).
On the day prior to adding compounds, HCC1954 AsPC-1, BxPC-3, HPAF-II, MiaPaCa2, PANC-1, Capan-1, Capan-2 and NCI-N87 cells were added to opaque-walled 96-well tissue culture-treated microtiter plates using complete growth medium at a density of 2500 cells/100 microlitre (uL) of medium. These adherant cell lines cells were incubated for one night at 37° C./5% CO2 to allow the cells to attach to the microtiter plate surface. On the day that compounds were added, Jurkat cells are added to separate 96-well microtiter plates at 2500 cells/100 uL using the same growth medium as HCC1954. Compound were first serially diluted using dimethyl sulfoxide, and then the prepared dilutions are added to complete growth medium at five-times the final concentration—compounds were then titrated 1:3, eight steps. A control with no compound (growth medium alone) was included on each microtiter plate in sextuplicate. The prepared compounds titrations were added (twenty-five uL/well) in triplicate. The cells and compound titrations were incubated at 37° C./5% CO2 for three nights. After the incubation, cell viability is measured using CellTiter-Glo® reagent by adding thirty uL of prepared CellTiter-Glo® to each assay well. The assay is incubated for at least twenty minutes in the dark prior to measuring emitted luminescence using a microplate luminometer (500 ms integration time). The collected relative luminescence units (RLU) are converted to % cytotoxicity using the Growth medium alone control mentioned above (% Cytotoxicity=1−[Well RLU/average medium alone control RLU]).
GraphPad Prism was used for generation of EC50 values using three parameter non-linear regression curve fitting.
For orientation: ATP-based viability assays read luminescence as a measure of living cells.

Where [1] appears, read: Homo sapiens, Jurkat, Table 3, Cytotoxicity of Compounds on Jurkat Cells.
Setting [2] is: Homo sapiens, Jurkat, Table 6, Compound Cytotoxicity on Jurkat.

Where two headings read alike, the source gives them in different places.

The EC50 is the concentration needed to bring the measured effect to its halfway point. With `CN[C@H](C(=O)N[C@H](C(=O)N(C)[C@H](/C=C(\C)C(=O)NS(=O)(=O)C1CCCCC1)C(C)C)C(C)(C)C)C(C)(C)c1ccccc1` [Compound 44, (S,E)-N-(cyclohexylsulfonyl)-2,5-dimethyl-4-((S)—N,3,3-trimethyl-2-((S)-3-methyl-2-(methylamino)-3-phenylbutanamido)butanamido)hex-2-enamide], the concentration giving a half-maximal response (EC50) was 0.114 nM under setting [1] and 1.48 nM under setting [2].
The like results for `CN[C@H](C(=O)N[C@H](C(=O)N(C)[C@H](/C=C(\C)C(=O)NS(=O)(=O)Cc1cccnc1)C(C)C)C(C)(C)C)C(C)(C)c1ccccc1` [Compound 45, (S,E)-2,5-dimethyl-N-(pyridin-3-ylmethylsulfonyl)-4-((S)—N,3,3-trimethyl-2-((S)-3-methyl-2-(methylamino)-3-phenylbutanamido)butanamido)hex-2-enamide] were, in that order, 0.869 nM and 0.373 nM.
With `CN[C@H](C(=O)N[C@H](C(=O)N(C)[C@H](/C=C(\C)C(=O)NS(=O)(=O)c1cccc(NC(=O)C(F)(F)F)c1)C(C)C)C(C)(C)C)C(C)(C)c1ccccc1` [Compound 47, (S,E)-2,5-dimethyl-N-(3-(2,2,2-trifluoroacetamido)phenylsulfonyl)-4-((S)—N,3,3-trimethyl-2-((S)-3-methyl-2-(methylamino)-3-phenylbutanamido)butanamido)hex-2-enamide], the EC50 under setting [1] was 0.261 nM.
With `CN[C@H](C(=O)N[C@H](C(=O)N(C)[C@H](/C=C(\C)C(=O)NS(=O)(=O)c1cccc(N)c1)C(C)C)C(C)(C)C)C(C)(C)c1ccccc1` [Compound 48, (S,E)-N-(3-aminophenylsulfonyl)-2,5-dimethyl-4-((S)—N,3,3-trimethyl-2-((S)-3-methyl-2-(methylamino)-3-phenylbutanamido)butanamido)hex-2-enamide], under setting [1], the EC50 was 0.208 nM.
For the molecule `CN[C@H](C(=O)N[C@H](C(=O)N(C)[C@H](/C=C(\C)C(=O)NS(=O)(=O)c1cccnc1)C(C)C)C(C)(C)C)C(C)(C)c1ccccc1` [Compound 49, (S,E)-2,5-dimethyl-N-(pyridin-3-ylsulfonyl)-4-((S)—N,3,3-trimethyl-2-((S)-3-methyl-2-(methylamino)-3-phenylbutanamido)butanamido)hex-2-enamide], the 50% effective concentration (EC50) under setting [1] worked out at 2.5 nM.
Same read-out and setting: in the case of `CN[C@H](C(=O)N[C@H](C(=O)N(C)[C@H](/C=C(\C)C(=O)NS(=O)(=O)c1cccs1)C(C)C)C(C)(C)C)C(C)(C)c1ccccc1` [Compound 50, (S,E)-2,5-dimethyl-N-(thiophen-2-ylsulfonyl)-4-((S)—N,3,3-trimethyl-2-((S)-3-methyl-2-(methylamino)-3-phenylbutanamido)butanamido)hex-2-enamide] it was 0.171 nM; in that of `CN[C@H](C(=O)N[C@H](C(=O)N(C)[C@H](/C=C(\C)C(=O)NS(=O)(=O)c1ccc(O)cc1)C(C)C)C(C)(C)C)C(C)(C)c1ccccc1` [Compound 51, (S,E)-N-(4-hydroxyphenylsulfonyl)-2,5-dimethyl-4-((S)—N,3,3-trimethyl-2-((S)-3-methyl-2-(methylamino)-3-phenylbutanamido)butanamido)hex-2-enamide], 0.247 nM; in that of `CN[C@H](C(=O)N[C@H](C(=O)N(C)[C@H](/C=C(\C)C(=O)NS(=O)(=O)Cc1ccc(C2(NC(=O)C(F)(F)F)CC2)cc1)C(C)C)C(C)(C)C)C(C)(C)c1ccccc1` [Compound 57, (S,E)-2,5-dimethyl-N-(4-(1-(2,2,2-trifluoroacetamido)cyclopropyl)benzylsulfonyl)-4-((S)—N,3,3-trimethyl-2-((S)-3-methyl-2-(methylamino)-3-phenylbutanamido)butanamido)hex-2-enamide], 0.566 nM.
The same measure, in the same setting: as for `CN[C@H](C(=O)N[C@H](C(=O)N(C)[C@H](/C=C(\C)C(=O)NS(=O)(=O)Cc1ccc(C2(N)CC2)cc1)C(C)C)C(C)(C)C)C(C)(C)c1ccccc1` [Compound 58, (S,E)-N-(4-(1-aminocyclopropyl)benzylsulfonyl)-2,5-dimethyl-4-((S)—N,3,3-trimethyl-2-((S)-3-methyl-2-(methylamino)-3-phenylbutanamido)butanamido) hex-2-enamide], the figure is 0.816 nM.
Consider `CN[C@H](C(=O)N[C@H](C(=O)N(C)[C@H](/C=C(\C)C(=O)NS(=O)(=O)c1ccc(C2(NC(=O)C(F)(F)F)CC2)cc1)C(C)C)C(C)(C)C)C(C)(C)c1ccccc1` [Compound 62, (S,E)-2,5-dimethyl-N-(4-(1-(2,2,2-trifluoroacetamido)cyclopropyl)phenylsulfonyl)-4-((S)—N,3,3-trimethyl-2-((S)-3-methyl-2-(methylamino)-3-phenylbutanamido)butanamido)hex-2-enamide], for which, under setting [2], the EC50 was determined as 1.2 nM.
Still for that read-out and setting: as for `CN[C@H](C(=O)N[C@H](C(=O)N(C)[C@H](/C=C(\C)C(=O)NS(=O)(=O)Cc1ccccc1C)C(C)C)C(C)(C)C)C(C)(C)c1ccccc1` [Compound 64, (S,E)-2,5-dimethyl-N-(2-methylbenzylsulfonyl)-4-((S)—N,3,3-trimethyl-2-((S)-3-methyl-2-(methylamino)-3-phenylbutanamido)butanamido)hex-2-enamide], the figure is 0.138 nM; as for `CN[C@H](C(=O)N[C@H](C(=O)N(C)[C@H](/C=C(\C)C(=O)NS(=O)(=O)Cc1ccc(Cl)cc1)C(C)C)C(C)(C)C)C(C)(C)c1ccccc1` [Compound 66, (S,E)-N-(4-chlorobenzylsulfonyl)-2,5-dimethyl-4-((S)—N,3,3-trimethyl-2-((S)-3-methyl-2-(methylamino)-3-phenylbutanamido)butanamido)hex-2-enamide], 0.145 nM.
Same read-out and setting: as for `CN[C@H](C(=O)N[C@H](C(=O)N(C)[C@H](/C=C(\C)C(=O)NS(=O)(=O)CCc1ccccc1)C(C)C)C(C)(C)C)C(C)(C)c1ccccc1` [Compound 67, (S,E)-2,5-dimethyl-N-(phenethylsulfonyl)-4-((S)—N,3,3-trimethyl-2-((S)-3-methyl-2-(methylamino)-3-phenylbutanamido)butanamido)hex-2-enamide], the figure is 0.562 nM.
For the molecule `CN[C@H](C(=O)N[C@H](C(=O)N(C)[C@H](/C=C(\C)C(=O)NS(=O)(=O)Cc1ccc(Br)cc1)C(C)C)C(C)(C)C)C(C)(C)c1ccccc1` [Compound 68, (S,E)-N-(4-bromobenzylsulfonyl)-2,5-dimethyl-4-((S)—N,3,3-trimethyl-2-((S)-3-methyl-2-(methylamino)-3-phenylbutanamido)butanamido)hex-2-enamide], the EC50 under setting [2] was determined as 0.337 nM.
On the same count and under the same terms, as for `CN[C@H](C(=O)N[C@H](C(=O)N(C)[C@H](/C=C(\C)C(=O)NS(=O)(=O)Cc1ccc(C#N)cc1)C(C)C)C(C)(C)C)C(C)(C)c1ccccc1` [Compound 69, (S,E)-N-(4-cyanobenzylsulfonyl)-2,5-dimethyl-4-((S)—N,3,3-trimethyl-2-((S)-3-methyl-2-(methylamino)-3-phenylbutanamido)butanamido)hex-2-enamide], the figure is 1.56 nM.
As to `CN[C@H](C(=O)N[C@H](C(=O)N(C)[C@H](/C=C(\C)C(=O)NS(=O)(=O)Cc1cccc([N+](=O)[O-])c1)C(C)C)C(C)(C)C)C(C)(C)c1ccccc1` [Compound 70, (S,E)-2,5-dimethyl-N-(3-nitrobenzylsulfonyl)-4-((S)—N,3,3-trimethyl-2-((S)-3-methyl-2-(methylamino)-3-phenylbutanamido)butanamido)hex-2-enamide], the EC50 under setting [2] stood at 0.856 nM.
Still for that read-out and setting: as for `CN[C@H](C(=O)N[C@H](C(=O)N(C)[C@H](/C=C(\C)C(=O)NS(=O)(=O)Cc1ccc(C(C)(C)C)cc1)C(C)C)C(C)(C)C)C(C)(C)c1ccccc1` [Compound 71, (S,E)-N-(4-tert-butylbenzylsulfonyl)-2,5-dimethyl-4-((S)—N,3,3-trimethyl-2-((S)-3-methyl-2-(methylamino)-3-phenylbutanamido)butanamido)hex-2-enamide], the figure is 1.02 nM.
Consider `CN[C@H](C(=O)N[C@H](C(=O)N(C)[C@H](/C=C(\C)C(=O)NS(=O)(=O)Cc1ccccc1[N+](=O)[O-])C(C)C)C(C)(C)C)C(C)(C)c1ccccc1` [Compound 72, (S,E)-2,5-dimethyl-N-(2-nitrobenzylsulfonyl)-4-((S)—N,3,3-trimethyl-2-((S)-3-methyl-2-(methylamino)-3-phenylbutanamido)butanamido)hex-2-enamide], for which the concentration giving a half-maximal response (EC50) (Table 6, Compound Cytotoxicity on Jurkat) is 0.531 nM.
